Data as given in PubChem BioAssay (NCI).
Several values for one entry are separate records, joined by “and”; a condition that tells them apart may be missing. Equal entries are not always repeated.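 Assay format: 96-well plates, 48-hour exposure. At the GI50, growth is halved. TGI is the concentration that stops growth completely.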

Legend:
Assay in all cases: NCI tumour cell line growth inhibition, 48 h
[1] = system: 786-0 renal
[2] = system: UACC-257 melanoma
[3] = system: MOLT-4 leukemia
[4] = system: MDA-MB-231 breast
[5] = system: SNB-19 CNS
[6] = system: OVCAR-4 ovarian
[7] = system: MDA-MB-435
[8] = system: U251 CNS
[9] = system: OVCAR-5 ovarian
[10] = system: HL-60(TB) leukemia

| Compound | TGI [1] | TGI [2] | TGI [3] | TGI [4] | TGI [5] | TGI [6] | TGI [7] | TGI [8] | TGI [9] | GI50 [1] | GI50 [2] | GI50 [10] | TGI [10] | GI50 [4] | GI50 [5] | GI50 [8] | GI50 [9] | GI50 [3] | GI50 [6] |
| --- | --- | --- | --- | --- | --- | --- | --- | --- | --- | --- | --- | --- | --- | --- | --- | --- | --- | --- | --- |
| CC1=C(\C=C/C(C)=C/C=C/C(C)=C/C=C/C=C(C)\C=C\C=C(C)/C=C/C2=C(C)CCCC2(C)C)C(C)(C)CCC1 | > 100 µM | > 100 µM | > 100 µM | > 100 µM | > 100 µM | > 100 µM | > 100 µM | > 100 µM | > 100 µM | – | – | – | – | – | – | – | – | – | – |
| CCOC(=O)C1=C(C)N(NC(=O)Nc2ccccc2)C2(N)N(NC(=O)Nc3ccccc3)C(C)=C(C(=O)OCC)C12C#N (centres undefined) | 32.4 µM | 38.5 µM | 56.8 µM | – | – | 31.5 µM | – | 32.3 µM | 32.4 µM | – | – | – | – | – | – | – | – | – | – |
| COc1ccccc1NC(=O)c1sc2ncn(CCOc3ccccc3)c(=O)c2c1C | > 50 µM | > 50 µM | – | > 50 µM | > 50 µM | – | – | > 50 µM | > 50 µM | > 50 µM | 1.49 µM | 1930 nM | > 50 µM | 2.61 µM | > 50 µM | 3.5 µM | 39.2 µM | – | – |
| CCNC(=O)O/N=C1\CCC2[C@@H]3CC=C4C[C@@H](OC(=O)NCC)CC[C@]4(C)C3CC[C@]12C (some centres undefined) | 12.8 µM | 3.33 µM | 3.2 µM | – | 14.1 µM | 5.19 µM | – | 9.6 µM | 17.1 µM | – | – | – | – | – | – | – | – | – | – |
| CCOC(=O)C(Oc1ccc(OC)c2c1C(=O)CCC2)c1ccccc1 (centres undefined) | > 100 µM | > 100 µM | > 100 µM | – | > 100 µM | > 100 µM | – | > 100 µM | > 100 µM | – | – | – | > 100 µM | – | – | – | – | – | – |
| COC(=O)C(=O)C(C(=O)C(=O)Nc1cc(C)ccc1C)c1nc2ccccc2[nH]c1=O (centres undefined) | > 100 µM | > 100 µM | > 100 µM | > 100 µM | > 100 µM | > 100 µM | > 100 µM | > 100 µM | > 100 µM | – | – | – | – | – | – | – | – | – | – |
| CC(=O)O[C@H]1CSC[C@@H](OC(C)=O)C1[N+](=O)[O-] (some centres undefined) | 36.5 µM | 52 µM | 78.7 µM | – | > 100 µM | > 100 µM | – | > 100 µM | > 100 µM | – | – | – | 54.6 µM | – | – | – | – | – | – |
| Cc1ccccc1NC(=O)C(=O)C(C(=O)c1ccccc1F)C1OC(=O)c2ccccc21 (centres undefined) | 41.6 µM | > 100 µM | 52.4 µM | – | 94.8 µM | 60.9 µM | – | 60.6 µM | > 100 µM | – | – | – | 56.5 µM | – | – | – | – | – | – |
| CCCCCCNC(=O)CCN(C(=O)O)S(=O)(=O)c1ccc(NC(=O)c2ccccc2)cc1 | > 100 µM | > 69.6 µM | > 60.1 µM | – | > 100 µM | > 100 µM | – | 42.3 µM | > 100 µM | – | – | – | > 64.2 µM | – | – | – | – | – | – |
| COc1cc(C(=O)/C=C/c2c[nH]c3ccccc23)cc(OC)c1OC | > 33.9 µM | – | 15.6 µM | 12.4 µM | > 57.3 µM | 43.1 µM | – | 16.1 µM | > 100 µM | < 0.0223 µM | – | < 14.5 nM | 0.0422 µM | 0.132 µM | 0.0342 µM | < 0.0195 µM | 0.0728 µM | 0.0473 µM | 0.684 µM |
| Nc1ncc(CN2CCCC2)c(-c2ccccc2O)n1 | > 750 µM | > 750 µM | > 750 µM | – | > 750 µM | > 750 µM | – | > 750 µM | > 750 µM | – | – | > 750000 nM | – | – | – | – | – | – | – |
| CN(C(=O)C12C3C4C1C1C2C3C41C#N)C(C)(C)C (centres undefined) | > 100 µM | > 100 µM | > 100 µM | – | > 100 µM | > 100 µM | – | > 100 µM | > 100 µM | – | – | – | > 100 µM | – | – | – | – | – | – |
| N/N=C1/C(=O)N(c2ccc(Cl)cc2)C(=O)C(=O)C1c1nc2ccccc2s1 (centres undefined) | > 100 µM | > 100 µM | > 100 µM | – | > 100 µM | > 100 µM | – | > 100 µM | > 100 µM | – | – | – | > 100 µM | – | – | – | – | – | – |
| N#Cc1sc2nc3c(c(-c4ccccc4)c2c1N)CCCC3 | > 100 µM | > 100 µM | > 100 µM | – | > 100 µM | > 100 µM | – | > 100 µM | > 100 µM | – | – | – | > 100 µM | – | – | – | – | – | – |
| CN(C)NC(=O)NC12CC3CC(CC(C3)C1)C2 | > 100 µM | > 100 µM | > 100 µM | – | > 100 µM | > 100 µM | – | > 100 µM | > 100 µM | – | – | – | > 100 µM | – | – | – | – | – | – |
| COc1ccc(/C=C\c2cc(OC)c(OC)c(OC)c2)cc1NC(=O)/C=C/c1cc(OC)c(OC)c(OC)c1 | > 100 µM | > 100 µM | > 100 µM | > 100 µM | > 100 µM | > 100 µM | – | > 100 µM | > 100 µM | 5.43 µM | 30.8 µM | 1950 nM | 8.03 µM | 7.81 µM | 5.64 µM | 3.82 µM | 5.74 µM | 8.52 µM | 6.77 µM |
| COc1cc([C@@H]2c3cc4c(cc3[C@@H](OC3OC5COC(C)OC5C(O)C3O)[C@H]3COC(=O)[C@H]23)OCO4)cc(OC)c1O (some centres undefined) | 43.3 µM and 28.1 µM and 9.35 µM | – | – | > 35 µM and 34.4 µM and 8.11 µM | 118 µM and 500 µM and 171 µM | 124 µM and 500 µM and 292 µM | 19 µM and 50 µM | – | 64.2 µM and 121 µM and 169 µM | – | – | – | – | 7.49 µM and 5.82 µM | – | – | – | – | – |
| Cc1nc2ccccc2c(=O)n1/N=C(\N=Nc1cc(Cl)ccc1Cl)c1ccc(N(C)C)cc1 | > 100 µM | – | > 100 µM | – | > 100 µM | – | – | > 100 µM | – | – | – | – | 56.5 µM | – | – | – | – | – | – |
| CCOC(=O)C(=O)CC(=O)C(Br)C(Br)c1ccc(Cl)cc1 (centres undefined) | 34 µM | 90.1 µM | 53 µM | – | 64.6 µM | > 100 µM | – | – | > 100 µM | – | – | – | 42 µM | – | – | – | – | – | – |
| CSCSCC(CO)NC(=O)/C=C/c1c(C)[nH]c(=O)[nH]c1=O (centres undefined) | > 100 µM | > 100 µM | > 100 µM | – | > 100 µM | > 100 µM | – | > 100 µM | > 100 µM | – | – | – | > 100 µM | – | – | – | – | – | – |
| NN=C1/C(=C\c2ccccc2)CCC/C1=C/c1ccccc1 | > 100 µM | > 100 µM | 37.4 µM | – | > 100 µM | > 100 µM | – | > 100 µM | > 100 µM | – | – | – | 45.1 µM | – | – | – | – | – | – |
| CC(C)(c1ccc(C=O)o1)c1ccc(C(C)(C)c2ccc(C=O)o2)o1 | > 100 µM | > 100 µM | > 100 µM | – | > 100 µM | > 100 µM | – | > 100 µM | > 100 µM | – | – | – | > 100 µM | – | – | – | – | – | – |
